Paper PMC6333893, “Exquisite ligand stereoselectivity of a Drosophila juvenile hormone receptor contrasts with its broad agonist repertoire” (The Journal of Biological Chemistry, 2018)
Like-named read-outs stand apart in the source and are kept apart here.

Legend:
[1] = target: T1, Gce (germ cell-expressed), Myc-tagged, in vitro translated (Drosophila melanogaster, UniProt Q9VXW7); assay: competition against R,S-[3H]JH III, glass fiber filter; assay type: binding
T1 sequence (Q9VXW7 271-959): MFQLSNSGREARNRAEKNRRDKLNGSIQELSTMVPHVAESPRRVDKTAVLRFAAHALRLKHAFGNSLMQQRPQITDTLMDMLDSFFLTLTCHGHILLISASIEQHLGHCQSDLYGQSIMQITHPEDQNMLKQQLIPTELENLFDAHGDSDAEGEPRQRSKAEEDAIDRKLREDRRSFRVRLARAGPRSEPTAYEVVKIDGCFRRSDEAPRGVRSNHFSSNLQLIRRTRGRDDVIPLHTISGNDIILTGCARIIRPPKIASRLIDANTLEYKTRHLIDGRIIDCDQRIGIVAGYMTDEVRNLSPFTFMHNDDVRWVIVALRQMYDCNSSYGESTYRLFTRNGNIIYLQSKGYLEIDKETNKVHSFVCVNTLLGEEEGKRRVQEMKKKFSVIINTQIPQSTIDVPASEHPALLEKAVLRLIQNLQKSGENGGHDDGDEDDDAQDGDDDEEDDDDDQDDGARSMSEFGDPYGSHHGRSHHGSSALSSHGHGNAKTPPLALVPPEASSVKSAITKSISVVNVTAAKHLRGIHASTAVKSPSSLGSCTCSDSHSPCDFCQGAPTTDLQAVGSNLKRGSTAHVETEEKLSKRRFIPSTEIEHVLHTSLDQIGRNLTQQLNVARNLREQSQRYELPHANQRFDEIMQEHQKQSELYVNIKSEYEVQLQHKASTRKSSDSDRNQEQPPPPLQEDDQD

[2] = target: T2, endogenous Gce in Drosophila S2 cells (JHRE-luc) (Drosophila melanogaster, UniProt Q9VXW7); assay: JHRE-luc reporter activation in S2 cells; assay type: cell-based; conditions: 8 h, transfected Tai, agonist
T2 construct: endogenous Gce of S2 cells, transfected D. melanogaster Tai and JHRE-luc reporter
T2 sequence (Q9VLD9 1-2026 partner, one chain of several): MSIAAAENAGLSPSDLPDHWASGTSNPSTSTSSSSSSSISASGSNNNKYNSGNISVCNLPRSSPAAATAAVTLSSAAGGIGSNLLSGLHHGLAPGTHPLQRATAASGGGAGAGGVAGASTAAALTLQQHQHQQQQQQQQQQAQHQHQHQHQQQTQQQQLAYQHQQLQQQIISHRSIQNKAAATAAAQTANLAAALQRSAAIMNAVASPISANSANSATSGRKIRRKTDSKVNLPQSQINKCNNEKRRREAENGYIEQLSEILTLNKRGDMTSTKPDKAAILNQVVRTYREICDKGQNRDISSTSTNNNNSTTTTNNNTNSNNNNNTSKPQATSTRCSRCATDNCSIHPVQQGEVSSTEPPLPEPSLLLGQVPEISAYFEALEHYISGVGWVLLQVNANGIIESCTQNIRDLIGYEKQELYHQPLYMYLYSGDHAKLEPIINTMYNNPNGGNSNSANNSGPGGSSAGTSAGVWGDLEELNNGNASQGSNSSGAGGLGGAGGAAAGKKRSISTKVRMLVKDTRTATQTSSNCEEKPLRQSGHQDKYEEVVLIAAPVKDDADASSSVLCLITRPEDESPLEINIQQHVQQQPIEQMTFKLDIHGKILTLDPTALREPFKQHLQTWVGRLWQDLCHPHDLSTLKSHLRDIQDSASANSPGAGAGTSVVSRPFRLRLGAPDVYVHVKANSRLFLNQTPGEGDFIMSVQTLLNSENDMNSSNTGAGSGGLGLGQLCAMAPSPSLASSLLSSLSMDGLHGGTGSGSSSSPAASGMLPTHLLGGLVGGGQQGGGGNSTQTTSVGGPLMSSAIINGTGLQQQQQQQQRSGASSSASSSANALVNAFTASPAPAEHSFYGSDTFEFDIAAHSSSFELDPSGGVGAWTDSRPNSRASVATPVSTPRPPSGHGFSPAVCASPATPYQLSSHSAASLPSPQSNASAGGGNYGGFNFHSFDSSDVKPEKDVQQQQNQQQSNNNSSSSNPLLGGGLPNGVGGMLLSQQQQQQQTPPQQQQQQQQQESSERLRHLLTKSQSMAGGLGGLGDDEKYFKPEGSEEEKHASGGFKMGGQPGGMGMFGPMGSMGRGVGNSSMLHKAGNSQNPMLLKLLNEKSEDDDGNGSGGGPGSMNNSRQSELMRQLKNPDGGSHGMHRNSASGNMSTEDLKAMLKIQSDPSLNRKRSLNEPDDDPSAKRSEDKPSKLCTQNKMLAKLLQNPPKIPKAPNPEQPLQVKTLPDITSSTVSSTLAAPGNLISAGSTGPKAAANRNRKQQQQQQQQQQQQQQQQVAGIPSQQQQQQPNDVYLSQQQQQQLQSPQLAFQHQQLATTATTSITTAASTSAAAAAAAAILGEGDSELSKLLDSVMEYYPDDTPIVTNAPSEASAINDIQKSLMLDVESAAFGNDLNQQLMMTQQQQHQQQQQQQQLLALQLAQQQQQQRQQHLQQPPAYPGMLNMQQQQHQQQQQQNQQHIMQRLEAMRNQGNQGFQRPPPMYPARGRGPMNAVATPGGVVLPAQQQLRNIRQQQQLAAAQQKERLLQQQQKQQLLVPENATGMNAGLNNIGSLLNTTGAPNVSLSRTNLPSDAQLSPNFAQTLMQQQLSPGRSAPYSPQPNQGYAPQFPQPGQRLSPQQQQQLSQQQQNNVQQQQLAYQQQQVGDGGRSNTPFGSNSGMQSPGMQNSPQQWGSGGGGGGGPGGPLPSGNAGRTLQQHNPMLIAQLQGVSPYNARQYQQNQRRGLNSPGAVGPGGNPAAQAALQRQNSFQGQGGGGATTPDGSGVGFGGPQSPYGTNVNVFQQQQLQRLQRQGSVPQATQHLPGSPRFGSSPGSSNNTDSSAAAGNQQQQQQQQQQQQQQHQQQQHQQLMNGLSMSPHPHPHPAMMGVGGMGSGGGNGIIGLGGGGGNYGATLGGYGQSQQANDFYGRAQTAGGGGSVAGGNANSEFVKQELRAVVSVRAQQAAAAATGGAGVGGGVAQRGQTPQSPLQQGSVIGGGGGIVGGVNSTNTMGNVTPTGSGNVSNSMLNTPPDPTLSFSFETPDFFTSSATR

[3] = read-out: Affinity of ligand binding to Gce (Ki)^a

COC(=O)/C=C(\C)CC/C=C(\C)CCC=C(C)C [MF]
Ki ([1]; read-out: Ki): 89.8 ± 26.7 nM
EC50 ([2]; read-out: EC50): 4430 ± 950 nM

CC/C(=C/CC/C(C)=C\C(=O)OC)CC[C@H]1O[C@@]1(C)CC [S-(Z,Z)-JH I]
Ki [1, 3]: 22600 nM

CCOC(=O)NCCOc1ccc(Oc2ccccc2)cc1 [fenoxycarb, ethyl N-[2-(4-phenoxyphenoxy)ethyl]carbamate]
Ki ([1]; read-out: Ki): 2.8 ± 1.1 nM
EC50 ([2]; read-out: EC50): 2.29 ± 0.65 nM

COC(=O)/C=C(\C)CCC1OC1(C)CCC1OC1(C)C (centres unmarked) [JHB3]
Ki ([1]; read-out: Ki): 83.3 ± 40.8 nM
EC50 ([2]; read-out: EC50): 110 ± 10 nM

COC(=O)/C=C(\C)CC/C=C(\C)CC[C@@H]1OC1(C)C [S-JH III]
Ki ([1]; read-out: Ki): 38.3 ± 5.2 nM
EC50 ([2]; unreliable (no saturation reached)): 4460 ± 2950 nM

CC/C(=C/CC/C(C)=C\C(=O)OC)CC[C@H]1O[C@]1(C)CC [R-(Z,Z)-JH I]
Ki [1, 3]: 28900 nM

CC/C(=C\CC/C(C)=C\C(=O)OC)CC[C@H]1O[C@]1(C)CC [R-(Z,E)-JH I]
Ki [1, 3]: 2400 nM

CC/C(=C\CC/C(C)=C\C(=O)OC)CC[C@H]1O[C@@]1(C)CC [S-(Z,E)-JH I]
Ki [1, 3]: 614 nM

CC/C(=C\CC/C(C)=C/C(=O)OC)CC[C@H]1O[C@@]1(C)CC [S-(E,E)-JH I]
Ki ([1]; read-out: Ki): 13.8 ± 5.1 nM
EC50 ([2]; read-out: EC50): 370 ± 220 nM

COC(=O)/C=C(\C)CC/C=C(\C)CC[C@H]1OC1(C)C [R-JH III]
Ki ([1]; read-out: Ki): 4.8 ± 1.3 nM
EC50 ([2]; read-out: EC50): 930 ± 380 nM

CC/C(C)=C/CC/C(=C/CC/C(C)=C/C(=O)OC)CC [deoxy-JH I, methyl (2E,6E,10E)-7-ethyl-3,11-dimethyltrideca-2,6,10-trienoate]
Ki ([1]; read-out: Ki): 143 ± 45 nM

CC/C(=C/CC/C(C)=C/C(=O)OC)CC[C@H]1O[C@@]1(C)CC [S-(E,Z)-JH I]
Ki [1, 3]: 447 nM

CCOC(=O)NCCOc1ccc(CC2CCCCC2O)cc1 (centres unmarked) [W330, Ethyl N-{2-{4-[(2-hydroxycyclohexyl)methyl]phenoxy}ethyl}carbamate]
Ki ([1]; read-out: Ki): 17.4 ± 5.7 nM
EC50 ([2]; read-out: EC50): 5.42 ± 0.41 nM

CC/C(=C/CC/C(C)=C/C(=O)OC)CC[C@H]1O[C@]1(C)CC [R-(E,Z)-JH I]
Ki [1, 3]: 479 nM

COC(=O)/C=C(\C)CC/C=C(\C)CCC1OC1(C)C (centres unmarked) [R,S-JH III]
Ki ([1]; read-out: Ki): 11 ± 2.2 nM
EC50 ([2]; racemic compound, read-out: EC50): 210 ± 140 nM
